Measurements: ChEMBL document CHEMBL3044719, “Synthesis of pyrazole-based 1,5-diaryl compounds as potent anti-inflammatory agents” (2012)

Legend:
Rattus norvegicus [1] = assay: Anti-inflammatory activity in Rattus norvegicus Wistar albino (rat) assessed as inhibition of carrageenan-induced paw edema after 180 min (reference value: 22.3%); type: functional
Rattus norvegicus [2] = assay: Anti-inflammatory activity in Rattus norvegicus Wistar albino (rat) assessed as inhibition of carrageenan-induced paw edema after 30 min (reference value: 30.1%); type: functional
Rattus norvegicus [3] = assay: Anti-inflammatory activity in Rattus norvegicus Wistar albino (rat) assessed as growth of carrageenan-induced paw edema after 90 min (reference value: 1.36 +/- 0.070%); type: functional
Rattus norvegicus [4] = assay: Anti-inflammatory activity in Rattus norvegicus Wistar albino (rat) assessed as growth of carrageenan-induced paw edema after 30 min (reference value: 1.27 +/- 0.043%); type: functional
Rattus norvegicus [5] = assay: Anti-inflammatory activity in Rattus norvegicus Wistar albino (rat) assessed as inhibition of carrageenan-induced paw edema after 90 min (reference value: 38.7%)

Row | Compound | inhibition (INH) (Rattus norvegicus [1]) [%] | inhibition (INH) (Rattus norvegicus [2]) [%] | Activity (Rattus norvegicus [3]) [%] | Activity (Rattus norvegicus [4]) [%] | inhibition (INH) (Rattus norvegicus [5]) [%]
1 | COC(=O)c1c(C)nn(-c2ccccc2)c1OCCCOc1c(C(=O)OC)c(C)nn1-c1ccccc1 | 17.9 | 15.1 | 1.49 | 1.34 | 24.4
2 | COC(=O)c1c(C)nn(-c2ccccc2)c1OCCCN1C(=O)c2ccccc2C1=O | 1.7 | 5.9 | 1.39 | 1.25 | 4.8
3 | CCOC(=O)c1c(C)nn(-c2ccccc2)c1OCCCN1C(=O)c2ccccc2C1=O | 39.3 | 38.9 | 1.18 | 1.11 | 44.7
4 | COC(=O)c1c(C)nn(-c2ccccc2)c1OCCCn1c(C)cc(C)c(C#N)c1=O | 18.5 | 17.6 | 1.03 | 0.94 | 29.7
5 | CCOC(=O)c1c(C)nn(-c2ccccc2)c1OCCCn1c(C)cc(C)c(C#N)c1=O | 20.4 | 22.4 | 1.16 | 1.05 | 28.5
6 | COC(=O)c1c(C)nn(-c2ccccc2)c1OCCCOc1nc(C)cc(C)c1C#N | 24.9 | 16.8 | 0.92 | 0.81 | 28.7
7 | CCOC(=O)c1c(C)nn(-c2ccccc2)c1OCCCOc1nc(C)cc(C)c1C#N | 16.8 | 21.4 | 1.18 | 1.22 | 24.6
8 | CS(=O)(=O)Nc1ccc([N+](=O)[O-])cc1Oc1ccccc1 [NIMESULIDE] | 2.54 | 10.8 | 1.25 | 1.29 | 7.9
